Assay results taken from US20190048391A1, “COMPOSITIONS AND METHODS FOR IDENTIFYING ENZYME MODULATORS OR INHIBITORS” (priority 2013, published 2019).
Peptide text beside a SMILES is read from it. * marks the point of attachment. Decanoyl = CCCCCCCCCC(=O)*; CH2Cl = ClC*

Tests used:
Format in all cases: cell-based
[1] = tested on: cleavage of wildtype HIV-1 envelope boundary by Furin or similar enzymes; assay: multiplexed tdTomato-barcoded SupT1 flow cytometry assay, wildtype HIV-1 envelope boundary substrate; conditions: DCK treatment; wildtype HIV-1 envelope boundary population
Description: (§1) As example, FIG. 15 schematically illustrates a fluorescent flow cytometry analysis of three SupT1 T cell lines, each carrying a different substrate within the context of the assay elements. The distinct cell lines were previously genetically barcoded with different levels of tdTomato fluorescent protein. In that manner, the assay cells, when analyzed for tdTomato in the PE channel (FIG. 15A, panel A) show three populations (negative, dim, and bright tdTomato). […] The HA positive/FLAG positive population reveal Population 2 (dim for tdTomato expressing the mutant HIV envelope boundary; env-mut (R511S)).
(§2) FIG. 16 schematically illustrates a fluorescent flow cytometry analysis in the PE channel for td Tomato expression and FITC channel for FLAG expression. As a reminder, in the assay the second tag (FLAG here) is lost if cleavage occurs while the scaffold protein travels to the cell surface. […] When stained for FLAG, only population 2 (mutant HIV-1 boundary) retains the tag, while wild type HIV-1 boundary and DenV pr-M, as expected, lost it.
(§3) In alternative embodiments, exemplary assays of the invention are used for drug discovery. As a proof of principle, the same experiment with the three bar-coded populations was repeated in the presence of DCK, an inhibitor of Furin and similar protein convertases that are active in the Golgi/TransGolgi network. […]

Furin [2] = biological target: T1, Furin (Homo sapiens, UniProt P09958); assay: flow cytometry of FLAG surface expression in SupT1 clones stably expressing the wt gp120/gp41 boundary scaffold; conditions: SupT1 clones expressing wt gp120/41 boundary, FITC anti-FLAG, 0.9% without inhibitor
T1 construct: endogenous in cells; host or cells: SupT1 T-cell clones stably transduced with pBMN-gp160 min-wt
T1 sequence (P09958 108-794): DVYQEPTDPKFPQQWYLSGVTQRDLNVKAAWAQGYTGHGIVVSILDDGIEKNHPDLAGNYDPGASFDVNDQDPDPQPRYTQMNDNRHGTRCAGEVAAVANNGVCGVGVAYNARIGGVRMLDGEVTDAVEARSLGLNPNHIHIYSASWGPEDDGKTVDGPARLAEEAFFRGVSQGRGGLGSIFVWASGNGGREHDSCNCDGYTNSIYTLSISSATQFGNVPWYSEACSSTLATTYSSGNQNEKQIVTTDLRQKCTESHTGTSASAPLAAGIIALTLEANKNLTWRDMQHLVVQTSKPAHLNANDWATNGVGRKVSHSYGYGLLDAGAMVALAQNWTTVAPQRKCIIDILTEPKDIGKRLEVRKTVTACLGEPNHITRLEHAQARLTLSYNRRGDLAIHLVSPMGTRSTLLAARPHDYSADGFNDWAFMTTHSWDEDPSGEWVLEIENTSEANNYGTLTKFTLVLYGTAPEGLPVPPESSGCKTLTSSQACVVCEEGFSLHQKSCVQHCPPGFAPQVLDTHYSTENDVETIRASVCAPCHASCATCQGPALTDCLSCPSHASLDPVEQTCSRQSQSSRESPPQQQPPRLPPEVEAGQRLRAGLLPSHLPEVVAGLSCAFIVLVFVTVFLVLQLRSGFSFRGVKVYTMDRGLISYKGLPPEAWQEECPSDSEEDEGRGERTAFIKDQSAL
Description: In alternative embodiments, cell-based assays of the invention comprise use of a double-tagged engineered scaffold (of the invention) that allows discrimination between cleaved and non-cleaved events based on the cell surface expression of one or two tags, respectively. In alternative embodiments the scaffold protein travels to the cell surface and retains the FLAG tag only when processing of the gp120/gp41 boundary within the gp160 Env precursor is inhibited, e.g., by a putative drug. […]
Clonal populations should drastically increase robustness as 100% of the cells are expected to express the assay scaffold. […] Selected clones sorted into a 96-well plate, were amplified for a period of one month and analyzed by flow cytometry and fluorescence microscopy. […]
For that purpose, clones expressing the wt gp120/41 boundary were analyzed by flow cytometry following incubation with increasing concentration of the Furin inhibitor DCK. […] The same clones, treated with 50 mM DCK, were further analyzed by fluorescence microscopy prior and following incubation with 50 mM DCK. […]
Flow cytometry and sorting: Flow cytometry is performed on a BD FACSAria™ and/or FACSCanto (SDSU FACS core facility) with 488 nm and 633 nm lasers. Data is collected using FACSDiva 6.1.1™ software (BD Biosciences. San Jose, Calif.) and analyzed by FLOWJO™ (Tree Star, Inc., Ashland, Oreg.).

Furin [3] = biological target: T1, Furin; assay: fluorescence microscopy (HA-FITC, FLAG-CY3) of SupT1 clones stably expressing the wt gp120/gp41 boundary scaffold; conditions: 50 mM DCK
Procedure: For that purpose, clones expressing the wt gp120/41 boundary were analyzed by flow cytometry following incubation with increasing concentration of the Furin inhibitor DCK. FLAG surface expression is progressively recovered at 10 mM and 50 mM DCK, increasing form 0.9% to 39% and then 90% (FIG. 7). The same clones, treated with 50 mM DCK, were further analyzed by fluorescence microscopy prior and following incubation with 50 mM DCK. The mutant version was used as control.
FIG. 8 illustrates: Fluorescence microscopy images of SupT1 clones stably expressing the assay (as with FIGS. 5, 6 and 7, above). Clones expressing wild type (wt) or mutant version of the boundary were analyzed with HA-FITC and FLAG-CY3. Visible light, individual channels and merge are shown. I: Inhibitor, BF: Bright Field.

[4] = tested on: cleavage of DenV pr-M boundary; assay: multiplexed tdTomato-barcoded SupT1 flow cytometry assay, DenV pr-M boundary substrate; conditions: DCK treatment; DenV pr-M population
Description: as §1, §2, §3

CCCCCCCCCC(=O)N[C@@H](CCCN=C(N)N)C(=O)N[C@H](C(=O)N[C@@H](CCCCN)C(=O)N[C@@H](CCCN=C(N)N)C(=O)CCl)C(C)C [DCK] (Decanoyl-RVKR-CH2Cl)
second tag (FLAG) cell surface expression [1]: reconstitutes the second tag (FLAG) cell surface expression
FLAG surface expression (Furin [2]; 10 mM DCK): 39%
FLAG surface expression (Furin [2]; 50 mM DCK): 90%
red fluorescence (FLAG-CY3) of wt clones (Furin [3]): red fluorescence is restored
inhibition of cleavage (FLAG reconstitution) [4]: not inhibited by DCK
